Reference: patent publication US20230210854A1, “MONO- AND COMBINATION THERAPIES” (Recurium IP Holdings, LLC, priority 2020, published 2023)

Experiments:
OVCAR3 xenograft = test: OVCAR3 ovarian tumor model, Doxorubicin combination; type: in vivo, BABL/c nude mice; details: OVCAR3, 2.5 mg/kg i.p. once per week for 4 weeks, single agent
Protocol: OVCAR3 xenograft model was established by the inoculation of 200 µL of OVCAR3 tumor cell suspension (1×10^7 cells/mouse, with 50% Matrigel) subcutaneously into the right subaxillary of BABL/c nude mice. When tumors reached approximately 180.8 mm^3, tumor bearing animals were randomly distributed into treatment groups of 10 animals each. […] Tumor volumes were evaluated twice per week to calculate tumor volume over time, and the mice were weighed twice per week as a surrogate for signs of toxicity.

x2-MDA-MB-468 tumor = test: x2 MDA-MB-468 TNBC tumor model, Niraparib combination; type: in vivo, mouse; details: x2-MDA-MB-468, 45 mg/kg orally, 7 days on, 7 days off for 4 cycles
Protocol: The x2-MDA-MB-468 cells (ATCC-Chempartner) were maintained in vitro as a monolayer culture in DMEM medium added with 10% FBS, 100 U/mL penicillin and 100 µg/mL streptomycin at 37° C. in an atmosphere of 5% CO2 in air. Each mouse was implanted subcutaneously on right flank with 1 × 10^7 x2-MDA-MD-468 cells in 0.2 mL mixture of RPMI1640 medium with BD Matrigel (base medium: Matrigel=100 uL:100 uL) for tumor development. […] Tumor volumes were evaluated twice per week to calculate tumor volume over time, and the mice were weighed twice per week as a surrogate for signs of toxicity.

TOV21G xenograft = TOV21G xenograft model; type: in vivo, BALB/c nude mice; details: 50 mg/kg i.p. once per week
Protocol: TOV21G xenograft model was established by the inoculation of 200 µL of TOV-21G tumor cell suspension (5×10^6 cells/mouse, with 50% Matrigel) subcutaneously into the right subaxillary of BALB/c nude mice. When tumors reached approximately 100 to 150 mm^3, tumor bearing animals were randomly distributed into treatment groups of 10 animals each. Animals were orally dosed with vehicle or Compound (1A) at 60 mg/kg for 19 days, carboplatin at 50 mg/kg by the i.p. injection once per week, and Compound (1A) treatment in combination with carboplatin. Tumor volumes were evaluated twice per week to calculate tumor volume over time, and the mice were weighed twice per week as a surrogate for signs of toxicity.

A427 cells = test: A427 cell growth study (DNA content, Hoechst 33258); type: cell-based; details: suboptimal doses, single agent, Day 6
Protocol: Experiment method: 3000 of A427 cells were seeded in 96-well pates and allowed to adhere overnight. Treatments with Compound (1A) and/or Triapine were added the next day. Cells were harvested at Day 6 and were assayed for DNA content using Hoechst 33258. Fluorescence intensity was read at excitation 346 nm and emission 460 nm using a plate reader. Data shown in FIG. 27 are representative of three independent experiments (raw fluorescence reading).

KMS-12-BM cells = test: CellTiter-Glo cell proliferation assay, KMS-12-BM; type: cell-based; details: Homo sapiens, 90 nM, 72 hrs
Protocol: (§1) Cell proliferation was measured using the CellTiter-Glo® Luminescent Cell Viability Assay. The assay involved the addition of a single reagent (CellTiter-Glo® Reagent) directly to cells cultured in serum-supplemented medium. KMS-12-BM, OPM-2 and MOLP8 cells were cultured according to DSMZ recommendations and were seeded at 20,000 cells per well. Each compound evaluated was prepared as a DMSO stock solution (10 mM). Compounds were tested in triplicate on each plate, with a single concentration indicated in each table. Compound treatment (10.0 µL) was added to the cells from the 10x concentration of each compound. Plates were then incubated at 37° C., 5% CO2. After 72 hrs, cell plates were equilibrated at room temperature (rt) for approximately 30 mins. An equi-volume amount of CellTiter-Glo® Reagent (100 µL) was added to each well. Plates were mixed for 2 mins on an orbital shaker to induce cell lysis and then incubated at rt for 10 mins to stabilize the luminescent signal. Luminescence was recorded using a SpectraMAX, M5e plate reader according to CellTiter-Glo protocol.

OPM-2 cells = test: CellTiter-Glo cell proliferation assay, OPM-2; type: cell-based; details: Homo sapiens; OPM-2, 50 nM, 72 hrs
Protocol: as §1

MOLP-8 cells = test: CellTiter-Glo cell proliferation assay, MOLP-8; type: cell-based; details: Homo sapiens; MOLP-8, 2 nM, 72 hrs
Protocol: as §1

COc1cccc2c1C(=O)c1c(O)c3c(c(O)c1C2=O)C[C@@](O)(C(=O)CO)C[C@@H]3O[C@H]1C[C@H](N)[C@H](O)[C@H](C)O1 [doxorubicin]
TGI (OVCAR3 xenograft): 43.11%

NC(=O)c1cccc2cn(-c3ccc([C@@H]4CCCNC4)cc3)nc12 [niraparib]
TGI (x2-MDA-MB-468 tumor): 47.7%

N.N.O=C([O-])C1(C(=O)[O-])CCC1.[Pt+2] [carboplatin]
TGI (TOV21G xenograft): 89.75%

NC(=S)N/N=C/c1ncccc1N [Triapine]
A427 cell growth (A427 cells): do not inhibit A427 cell growth

Nc1ccn([C@@H]2O[C@H](CO)[C@@H](O)C2(F)F)c(=O)n1 [Gemcitabine]
inhibition at 0.09 µM (KMS-12-BM cells): 38%
inhibition at 0.05 µM (OPM-2 cells): 35.1%
inhibition at 0.002 µM (MOLP-8 cells): 22%
